# Results as given in ChEMBL document CHEMBL1201862, “PubChem BioAssay data set” (2004).
#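 Grown in 96-well plates, cells were treated for 48 hours with each compound at five concentrations. Insufficient inhibition: endpoint recorded as highest concentration tested. Here, GI50 denotes the concentration required for 50% inhibition of growth.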 Calls of active or inactive are those of the source. No stated cut-off is given here; in the data, active = GI50 up to about 1.1 µM and inactive = higher.
# Legend:
# Experiment in all cases: NCI tumour cell line growth inhibition, 48 h
# MDA-MB-231 = test system: MDA-MB-231
# PC-3 = test system: PC-3
# BT-549 = test system: BT-549
# XF498 = test system: XF498
# LXFL 529 = test system: LXFL 529
# RXF 631 = test system: RXF 631
# DMS-273 = test system: DMS-273
# HOP-18 = test system: HOP-18
# MDA-N = test system: MDA-N
SMILES,GI50 (MDA-MB-231),GI50 (PC-3),GI50 (BT-549),GI50 (XF498),GI50 (LXFL 529),GI50 (RXF 631),GI50 (DMS-273),GI50 (HOP-18),GI50 (MDA-N)
COc1ccc(C(c2cc3c(cc2O)OCO3)N2CCOCC2)cc1OC (stereo not drawn),3.5 µM (inactive),11.1 µM (inactive),5.28 µM (inactive),,,,,,
O=C(NN1C(=O)C(Cl)C1c1cccc([N+](=O)[O-])c1)c1ccccc1O (stereo not drawn),,,,> 100 µM (inactive),> 100 µM (inactive),,,,
O=C(Nc1ccc([N+](=O)[O-])cc1[N+](=O)[O-])C(=O)C(C(=O)c1ccc2ccccc2c1)C1OC(=O)c2ccccc21 (stereo not drawn),,,,,10.5 µM (inactive),16.6 µM (inactive),10.2 µM (inactive),,
CCCCCCCCCCCCCCCCOCC(COP(=O)([O-])OCC[N+](C)(C)C)OCCCCCCCCCCCCCCCC (stereo not drawn),,,,> 100 µM (inactive),,,> 100 µM (inactive),> 100 µM (inactive),
CC(=O)Nc1ccc(C2=N/C(=C\c3ccc(Cl)c(Cl)c3)C(=O)O2)cc1,,,,57.5 µM (inactive),> 100 µM (inactive),> 100 µM (inactive),80.4 µM (inactive),> 100 µM (inactive),
CC(C)C1CN(C(=O)OCc2ccccc2)C2N1C(=O)C2(C)OCc1ccccc1 (stereo not drawn),,,,11.7 µM (inactive),28.7 µM (inactive),40.6 µM (inactive),35.3 µM (inactive),,
COc1cc2c(c(OC)c1OC)-c1[nH]ncc1CC2,,,,> 100 µM (inactive),> 100 µM (inactive),,> 100 µM (inactive),> 100 µM (inactive),
O=C(Nc1ccc(F)cc1)c1cc2ccc(O)cc2o/c1=N\c1ccccc1F,,32.3 µM (inactive),14.8 µM (inactive),,,,,,34.6 µM (inactive)
O=C(/C=C/CC(O)(c1ccccc1)c1ccccc1)Nc1ccccc1Cl,,,,,> 100 µM (inactive),,,,
NC(CCOCCP(=O)(O)CCC1C=CC=CC1)C(=O)O (stereo not drawn),> 100 µM (inactive),> 100 µM (inactive),> 100 µM (inactive),,,,,,> 100 µM (inactive)
Cc1c2[nH]c3ccc(Br)cc3c2c(C)c2nccc(O)c12,,,,16.1 µM (inactive),,,12.2 µM (inactive),10.8 µM (inactive),
Nc1nc(N)c2c(CCc3ccc(C(=O)N[C@@H](CCC(=O)O)C(=O)O)cc3)ccnc2n1,> 100 µM (inactive),17.7 µM (inactive),,,,,,,< 0.0129 µM (active)
CC(C)(CCCCC(C)(C)NC1=NCCO1)NC1=NCCO1,> 10 µM (inactive),> 10 µM (inactive),,,,,,,> 10 µM (inactive)
O=C1C(=CNC(=S)c2ccccc2)C(=O)c2ccccc21,55.2 µM (inactive),63.2 µM (inactive),28.1 µM (inactive),,,,,,52.7 µM (inactive)
CC1C(NNC(N)=O)Oc2cc3c(cc2C1c1ccccc1O)OCO3 (stereo not drawn),55.7 µM (inactive),24.5 µM (inactive),52.6 µM (inactive),,,,,,22.3 µM (inactive)
NC1C2C=CC(C2)C1C(=O)O (stereo not drawn),> 100 µM (inactive),> 100 µM (inactive),> 100 µM (inactive),,,,,,> 100 µM (inactive)
CC(=O)O[C@H]1[C@@H](OC(C)=O)C(C)(C)/C=C/[C@H](C)C(=O)[C@@]2(OC(C)=O)C[C@@](C)(OC(C)=O)[C@H](OC(C)=O)[C@@H]2[C@H]2OC(=O)CC[C@@]2(OC(=O)c2ccccc2)[C@@H]1OCC(C)C,> 100 µM (inactive),17.5 µM (inactive),67.6 µM (inactive),,,,,,7.11 µM (inactive)
O=C1C=CC2(O[C@@H](Cc3ccccc3)[C@H](Cc3ccccc3)O2)C(SC(=O)c2ccccc2)C1 (stereo partly drawn),2.52 µM (inactive),1.53 µM (inactive),0.34 µM (active),,,,,,0.853 µM (active)
O=C1N[C@@H]([C@H](CCCCCO)OC(=O)c2ccccc2)CO1,3.18 µM (inactive),> 100 µM (inactive),> 100 µM (inactive),,,,,,> 100 µM (inactive)
COc1cc2c(cc1Oc1c(Oc3c(O)c(OC)cc4c3C(CC(C)C)N(C)CC4)c(OC)cc3c1C(CC(C)C)N(C)CC3)C(CC(C)C)N(C)CC2 (stereo not drawn),,,,,,,1.18 µM (inactive),1.67 µM (inactive),
CCN(CC)c1c(C)c(C(=O)OC)nn1-c1ccccc1,,,,> 34.5 µM (inactive),,,> 100 µM (inactive),> 100 µM (inactive),
C=C1CC(OC)(C(O)C(=O)N[C@H]2OCO[C@H]3C2O[C@H](C[C@@H](CO)OC)C(C)(C)C3OC)O[C@H](C)[C@@H]1C (stereo partly drawn),,,,< 0.00931 µM (active),,,< 0.00931 µM (active),< 0.00931 µM (active),
O=C1C(=O)c2cc([N+](=O)[O-])ccc2-c2ccc([N+](=O)[O-])cc21,,,,1.23 µM (inactive),,,0.397 µM (active),1.71 µM (inactive),
Cn1c(=O)nc2n(-c3ccc(Cl)cc3Cl)c3ccccc3nc-2c1=O,,,,0.262 µM (active),,,,11 µM (inactive),
